Data published in patent US20070015827A1, “Methods and compositions for treating ophthalmic conditions via serum retinol, serum retinol binding protein (RBP), and/or serum retinol-RBP modulation” (Sytera, Inc., priority 2005, published 2007).
“Also recorded” adds a separate entry of the source.

Columns and labels:
[1] = target: Apo-RBP (Homo sapiens, UniProt P02753); assay: Fluorescence quenching study with Apo-RBP (Example 15); type: binding
Protocol: Apo-RBP at 0.5 μM was incubated with 0, 0.25, 0.5, 1 and 2 μM of MPR in PBS at room temperature for 1 hour, respectively. As controls, the same concentration of Apo-RBP was also incubated with 1 μM of HPR or 1 μM of atROL. All mixtures contained 0.2% Ethanol (v/v). The emission spectra were measured between 290 nm to 550 nm with excitation wavelength at 280 nm and 3 nm bandpass.

[2] = target: TTR binding to RBP (Homo sapiens, UniProt P02753); assay: Size exclusion study of TTR binding to RBP (Example 16); conditions: for binding of ligand-RBP to TTR: 10 μM RBP, 10 μM TTR, room temperature, 1 hour
Protocol: Apo-RBP at 10 μM was incubated with 50 μM of MPR in PBS at room temperature for 1 hour. 10 μM of TTR was then added to the solution, and the mixture was incubated for another hour at room temperature. 50 μl of the sample mixtures with and without TTR addition were analyzed by BioRad Bio-Sil SEC125 Gel Filtration Column (300×7.8 mm). In control experiments, atROL-RBP and atROL-RBP-TTR mixture were analyzed in the same manner.

[3] = system: abca4 null mutant mice; assay: A2E and A2PE-H2 in eyes after chronic treatment (HPLC); type: in vivo, mouse; conditions: 13-cis retinoic acid 40 mg/kg, chronic (1 month)
Protocol: Tissue Extraction. Eye samples were thawed on ice in 1 ml of PBS, pH 7.2 and homogenized by hand using a Duall glass-glass homogenizer. The sample was further homogenized following the addition of 1 ml chlorofomm/methanol (2:1, v/v). The sample was transferred to a boroscilicate tube and lipids were extracted into 4 mls of chloroform. The organic extract was washed with 3 mls PBS, pH 7.2 and the samples were then centrifuged at 3,000×g, 10 min. The choloroform phase was decanted and the aqueous phase was re-extracted with another 4 mls of chloroform. Following centrifugation, the chloroform phases were combined and the samples were taken to dryness under nitrogen gas. Samples residues were resuspended in 100 μl hexane and analyzed by HPLC as described below.
HPLC Analysis. Chromatographic separations were achieved on an Agilent Zorbax Rx-Sil Column (5 μm, 4.6×250 mm) using an Agilent 1100 series liquid chromatograph equipped with fluorescence and diode array detectors. The mobile phase (hexane/2-propanol/ethanol/25 mM KH2PO4, pH 7.0/acetic acid; 485/376/100/50/0.275, v/v) was delivered at 1 ml/min. Sample peak identification was made by comparison to retention time and absorbance spectra of authentic standards. Data are reported as peak fluorescence (L.U.) obtained from the fluorescence detector.
We initiated a one-month study to evaluate the effects of HPR on reduction of A2E and A2E precursors in abca4 null mutant mice. HPR was administered in DMSO (20 mg/kg, ip) to abca4 null mutant mice (BL6/129, aged 2 months) daily for a period of 28 days. Control age/strain matched mice received only the DMSO vehicle. Mice were sampled at 0, 14, and 28 days (n=3 per group), the eyes were enucleated and chloroform-soluble constituents (lipids, retinoids and lipid-retinoid conjugates) were extracted. Mice were sacrificed by cervical dislocation, the eyes were enucleated and individually snap frozen in cryo vials. The sample extracts were then analyzed by HPLC with on-line fluorescence detection. Results from this study show remarkable, early reductions in the A2E precursor, A2PE-H2, see FIG. 4a, and subsequent reductions in A2E, see FIG. 4b. […] A similar study may be undertaken to ascertain effects of HPR treatment on the electroretinographic and morphological phenotypes.
ABCA4 null mutant mice were given the indicated dose of HPR in DMSO or DMSO alone daily for 28 days (n=16 mice per treatment group). At study onset, mice in the 2.5 mg/kg group were 2 months of age, mice in the other treatment groups were 3 months of age. At the indicated times, representative mice were taken from each group (n =4) for analysis of A2E precursor compounds (see FIG. 10, A2PE-H2, panels A, C and E) and A2E (see FIG. 10, panels B, D and F). Eyes were enucleated, hemisected and lipid soluble components were extracted from the posterior pole by chloroform/methanol-water phase partitioning. Sample extracts were analyzed by LC. Identity of the eluted compounds was confirmed by UV-vis absorption spectroscopy and co-elution of sample peaks with authentic standards. Note: limitations in appropriately age and strain-matched mice in the 10 mg/kg group prevented analysis at the 14-day interval.
Extraction and Analysis of Retinoids and A2E. Steady-state levels of retinoids and A2E in eyecups of ABCA4−/− mice were determined following daily administration (28 days) of HPR (FIG. 12). Mice were sacrificed, the eyes enucleated, and the posterior portion of each eye was used for extraction of retinoids or A2E. Methodologies used for extraction of retinoids and A2E from eye tissue and HPLC analysis techniques have been described. See, e.g., Mata N L, Weng J, Travis G H. Biosynthesis of a major lipofuscin fluorophore in mice and humans with ABCR-mediated retinal and macular degeneration. Proc Natl Acad Sci USA. 2000; 97:7154-7159; Weng J, et al.; Cell. 1999;98:13-23; Mata N L, et al.; Invest. Ophthalmol. Visual Sci. 2001; 42:1685-1690. […]

[4] = system: wild-type and abca4 −/− mice; conditions: mouse, in vivo
Excerpt: Delayed-dark adaptation can be further exacerbated by compounds which reduce the rate of rhodopsin regeneration (e.g., 13-cis retinoic acid). Although compounds such as HPR, which reduce total ocular retinoid levels, may also contribute to delayed-dark adaptation, the effect is less pronounced. This point was illustrated in studies which examined the effects of chronic (1 month) 13-cis retinoic acid or HPR administration on electrophysiology of the retina. […] Following exposure to a light source which bleaches approximately 40% of the visual chromophore, wild-type mice require ˜1 hour to regain dark sensitivity (1.0 value on the y-axis); untreated abca4 −/− mice require ˜3-4 hours. 13-cis retinoic acid treatment prolongs the time required to regain dark sensitivity to several hours. […] This finding is relevant for human patients affected with AMD.
Panels D-F of FIG. 9 are electrophysiological measurements of rod function (panel D), rod and cone function (panel E) and recovery from photobleaching (panel F).

[5] = system: abca4 −/− mice; assay: A2E levels after withdrawal of chronic treatment; type: in vivo, mouse
Protocol: Latent Effects of HPR on Arresting A2E Accumulation —One feature identified during the HPR trials was a therapeutic latency effect following withdrawal of HPR. In these studies, chronic treatment of abca4 −/− mice (10 mg HPR/kg, i.p.) was stopped after 28 days. A2E levels were then measured 12, 28 and 42 days following the final HPR dose. […] This effect was not observed in animals treated with 13-cis retinoic acid, a result that may be due to the capacity of RPE cells to adapt to, and maintain, low steady-state retinoid levels. […] These findings indicate that high steady-state levels of competitive inhibitors such as 13-cis retinoic acid must be maintained for therapeutic efficacy.

[6] = system: mice; conditions: cited from earlier work

Row | SMILES | binding to RBP relative to HPR [1] | quenching of RBP fluorescence ([1]; 0.5 μM Apo-RBP, 0-2 μM MPR, PBS, room temperature, 1 hour) | degree of quenching compared with other RBP ligands ([1]; controls 1 μM HPR, 1 μM atROL) | MPR concentration at which quenching saturated ([1]; for 0.5 μM of RBP) [µM] | binding to RBP (360 nm absorbance in RBP elution peak) ([2]; 10 μM Apo-RBP, 50 μM MPR) | binding of ligand-RBP to TTR [2] | reduction in A2E [3] [%] | time required to regain dark sensitivity [4] | A2E levels after withdrawal (therapeutic latency effect) ([5]; chronic treatment (HPR 10 mg/kg i.p.) stopped after 28 days, measured 12, 28 and 42 days later) | photoreceptor function and ocular retinoid levels following withdrawal ([5]; mouse, in vivo) | 11-cis retinyl esters ([6]; increased 13-cis retinoic acid) | levels of 11-cis retinal ([6]; increased doses of 13-cis retinoic acid)
1 | COc1ccc(NC(=O)\C=C(C)/C=C/C=C(C)\C=C\C2=C(C)CCCC2(C)C)cc1 (stereo in doubt) [MPR, N-(4-methoxyphenyl)retinamide] | more weakly | concentration-dependent quenching | smaller than those by atROL and HPR | 1 | RBP binds to MPR | did not bind to TTR; also recorded: inhibits the binding of TTR to RBP | – | – | – | – | – | –
2 | CC1=C(/C=C/C(C)=C/C=C/C(C)=C\C(=O)O)C(C)(C)CCC1 [13-cis retinoic acid] | – | – | – | – | – | – | ~50 | several hours | not observed | quickly returned to baseline values | increased dramatically | significantly reduced
3 | CC1=C(/C=C/C(C)=C/C=C/C(C)=C/CO)C(C)(C)CCC1 [atROL, all-trans retinol] | – | – | – | – | – | binds to TTR | – | – | – | – | – | –
